Laboratory results as given in ChEMBL document CHEMBL1201862, “PubChem BioAssay data set” (2004).
Activity calls are given as the source filed them.

Legend:
[1] = biological target: T1, Calpain-2 catalytic subunit (Sus scrofa, UniProt P43367); test: pig calpain II inhibitor potency, dose response, biochemical, fluorogenic peptide substrate (AID 1420); type: functional
T1 sequence (P43367 whole entry): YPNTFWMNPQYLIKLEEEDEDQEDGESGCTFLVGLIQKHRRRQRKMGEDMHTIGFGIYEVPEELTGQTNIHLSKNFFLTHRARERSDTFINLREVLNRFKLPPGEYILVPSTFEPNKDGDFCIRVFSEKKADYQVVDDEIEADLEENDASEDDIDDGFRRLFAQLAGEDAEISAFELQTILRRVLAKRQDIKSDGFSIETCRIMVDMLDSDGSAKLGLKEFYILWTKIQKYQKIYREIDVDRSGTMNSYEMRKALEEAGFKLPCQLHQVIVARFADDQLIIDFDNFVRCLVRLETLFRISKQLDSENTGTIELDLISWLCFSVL

Phospholipase A2 = Phospholipase A2 (Homo sapiens, UniProt P04054); type: functional;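 further: confirmatory dose-response counterscreen on phospholipase A2, testing hits that came from an ultra-high-throughput screen for ATG4B inhibitors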
[2] = biological target: T2, RNA-binding protein pos-1 (Caenorhabditis elegans, UniProt G5EF15); test: inhibitors of POS-1/mex-3 RNA binding, dose response, biochemical, fluorescence polarization (AID 1964);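 further: purified POS-1 fused to maltose binding protein made in E. coli; potency of compounds blocking POS-1 binding to fluorescent RNA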
T2 sequence (G5EF15 whole entry): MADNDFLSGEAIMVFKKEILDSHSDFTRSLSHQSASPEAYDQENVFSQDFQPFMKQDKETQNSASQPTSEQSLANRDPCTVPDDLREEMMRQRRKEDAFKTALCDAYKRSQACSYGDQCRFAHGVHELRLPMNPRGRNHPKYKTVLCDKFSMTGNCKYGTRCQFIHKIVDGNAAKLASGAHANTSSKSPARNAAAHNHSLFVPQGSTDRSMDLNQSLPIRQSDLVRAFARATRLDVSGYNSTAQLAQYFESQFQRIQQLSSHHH

Cysteine protease ATG4B = biological target: T3, Cysteine protease ATG4B (Homo sapiens, UniProt Q9Y4P1); type: functional;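 further: Fluorescence-based dose-response confirmation assay measuring inhibition of ATG4B activity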
T3 sequence (Q9Y4P1 whole entry): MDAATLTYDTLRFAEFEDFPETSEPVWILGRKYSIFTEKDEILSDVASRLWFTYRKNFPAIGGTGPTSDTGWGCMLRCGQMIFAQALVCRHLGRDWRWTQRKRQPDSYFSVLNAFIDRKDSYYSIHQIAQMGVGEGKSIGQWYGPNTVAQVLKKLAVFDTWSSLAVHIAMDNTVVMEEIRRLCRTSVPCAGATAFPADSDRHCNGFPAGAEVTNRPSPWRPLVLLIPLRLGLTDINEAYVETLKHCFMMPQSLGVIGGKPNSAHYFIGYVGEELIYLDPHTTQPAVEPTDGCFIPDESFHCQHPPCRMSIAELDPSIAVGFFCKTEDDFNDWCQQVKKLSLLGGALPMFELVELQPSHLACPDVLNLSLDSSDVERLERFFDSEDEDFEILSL

[3] = biological target: T4, Zinc finger protein mex-5 (Caenorhabditis elegans, UniProt Q9XUB2); test: MEX-5/TCR-2 RNA interaction inhibitors, dose response, biochemical, C. elegans, fluorescence polarization (AID 1960)
T4 sequence (Q9XUB2 whole entry): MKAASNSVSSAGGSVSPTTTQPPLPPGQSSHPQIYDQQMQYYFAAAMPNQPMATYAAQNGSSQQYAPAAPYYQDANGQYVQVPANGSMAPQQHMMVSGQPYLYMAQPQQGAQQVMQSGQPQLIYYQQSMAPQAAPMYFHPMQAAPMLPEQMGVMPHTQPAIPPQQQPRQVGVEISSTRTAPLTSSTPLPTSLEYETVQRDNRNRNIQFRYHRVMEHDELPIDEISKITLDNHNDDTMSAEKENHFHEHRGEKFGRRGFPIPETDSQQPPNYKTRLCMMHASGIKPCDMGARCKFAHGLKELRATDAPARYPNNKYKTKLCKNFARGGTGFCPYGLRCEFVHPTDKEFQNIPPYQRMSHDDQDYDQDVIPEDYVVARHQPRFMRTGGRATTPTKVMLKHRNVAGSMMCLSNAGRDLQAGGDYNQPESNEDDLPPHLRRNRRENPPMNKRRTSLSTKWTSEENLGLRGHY

[4] = biological target: T5, Histone-lysine N-methyltransferase NSD2 (Homo sapiens, UniProt O96028); type: biochemical
T5 sequence (O96028 whole entry): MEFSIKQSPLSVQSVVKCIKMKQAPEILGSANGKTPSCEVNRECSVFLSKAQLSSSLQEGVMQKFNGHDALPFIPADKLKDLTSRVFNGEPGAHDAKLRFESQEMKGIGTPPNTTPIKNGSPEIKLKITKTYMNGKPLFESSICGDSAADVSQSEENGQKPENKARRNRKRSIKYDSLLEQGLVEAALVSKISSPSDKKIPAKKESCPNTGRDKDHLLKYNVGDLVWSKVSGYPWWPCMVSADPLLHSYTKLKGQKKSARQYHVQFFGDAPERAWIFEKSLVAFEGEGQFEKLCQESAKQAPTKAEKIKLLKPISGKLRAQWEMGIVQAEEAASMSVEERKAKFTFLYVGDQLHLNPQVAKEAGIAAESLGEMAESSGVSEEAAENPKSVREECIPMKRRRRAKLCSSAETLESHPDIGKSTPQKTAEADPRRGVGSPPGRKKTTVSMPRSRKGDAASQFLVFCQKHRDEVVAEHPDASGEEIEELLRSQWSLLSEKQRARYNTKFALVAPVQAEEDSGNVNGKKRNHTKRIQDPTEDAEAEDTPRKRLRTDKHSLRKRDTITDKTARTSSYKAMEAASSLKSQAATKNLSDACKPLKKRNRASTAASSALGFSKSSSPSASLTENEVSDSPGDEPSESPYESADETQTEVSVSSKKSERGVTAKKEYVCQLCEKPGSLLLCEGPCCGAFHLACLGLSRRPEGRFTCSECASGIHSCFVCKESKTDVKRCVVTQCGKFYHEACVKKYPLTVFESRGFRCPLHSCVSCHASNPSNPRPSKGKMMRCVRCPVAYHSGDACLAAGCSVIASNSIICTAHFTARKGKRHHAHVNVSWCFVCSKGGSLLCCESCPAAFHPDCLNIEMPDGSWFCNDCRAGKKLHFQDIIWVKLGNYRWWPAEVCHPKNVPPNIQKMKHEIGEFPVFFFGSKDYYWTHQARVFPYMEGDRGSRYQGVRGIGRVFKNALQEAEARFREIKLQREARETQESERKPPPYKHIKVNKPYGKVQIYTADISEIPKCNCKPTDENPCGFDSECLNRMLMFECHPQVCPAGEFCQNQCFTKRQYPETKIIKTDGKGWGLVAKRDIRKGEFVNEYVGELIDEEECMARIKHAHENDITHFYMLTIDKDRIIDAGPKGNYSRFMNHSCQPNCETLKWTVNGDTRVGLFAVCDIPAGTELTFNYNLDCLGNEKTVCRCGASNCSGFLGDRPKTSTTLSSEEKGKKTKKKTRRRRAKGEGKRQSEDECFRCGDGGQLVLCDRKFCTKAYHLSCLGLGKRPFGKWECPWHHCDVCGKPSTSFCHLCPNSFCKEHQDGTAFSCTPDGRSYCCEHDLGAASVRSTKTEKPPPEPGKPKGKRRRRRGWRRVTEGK

[5] = biological target: Dual specificity protein phosphatase 3 (Homo sapiens, UniProt P51452); test: VHR phosphatase inhibition, dose response, selectivity assay for STEP inhibitor project, biochemical (AID 602374); type: functional; conditions: read-out: IC50_Mean
[6] = biological target: T6, Tyrosine-protein phosphatase non-receptor type 11 (Homo sapiens, UniProt Q06124); test: SHP2 phosphatase inhibition, dose response, selectivity assay for STEP inhibitor project, biochemical (AID 602367); type: functional; conditions: read-out: IC50_Mean
T6 sequence (Q06124 whole entry): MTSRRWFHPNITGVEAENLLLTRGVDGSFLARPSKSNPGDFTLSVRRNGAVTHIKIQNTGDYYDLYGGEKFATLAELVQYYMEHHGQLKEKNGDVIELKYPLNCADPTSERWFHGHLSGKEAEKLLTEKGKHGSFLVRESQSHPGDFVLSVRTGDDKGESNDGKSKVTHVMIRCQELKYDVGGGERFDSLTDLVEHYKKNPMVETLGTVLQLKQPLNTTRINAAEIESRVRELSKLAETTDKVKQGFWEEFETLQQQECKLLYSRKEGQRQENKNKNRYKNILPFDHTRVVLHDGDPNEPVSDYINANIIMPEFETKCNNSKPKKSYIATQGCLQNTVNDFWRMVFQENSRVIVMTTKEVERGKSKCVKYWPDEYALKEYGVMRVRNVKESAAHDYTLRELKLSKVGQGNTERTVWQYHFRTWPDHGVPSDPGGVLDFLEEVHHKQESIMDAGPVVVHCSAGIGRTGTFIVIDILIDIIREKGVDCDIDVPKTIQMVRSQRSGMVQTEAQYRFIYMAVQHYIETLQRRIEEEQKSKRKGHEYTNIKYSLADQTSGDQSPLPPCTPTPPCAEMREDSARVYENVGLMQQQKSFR

[7] = biological target: T7, Tyrosine-protein phosphatase non-receptor type 5 (Homo sapiens, UniProt P54829); test: STEP phosphatase inhibitors, confirmation, biochemical, fluorescence intensity, uHTS hits (AID 602372); type: functional; conditions: read-out: IC50_Mean
T7 sequence (P54829 whole entry): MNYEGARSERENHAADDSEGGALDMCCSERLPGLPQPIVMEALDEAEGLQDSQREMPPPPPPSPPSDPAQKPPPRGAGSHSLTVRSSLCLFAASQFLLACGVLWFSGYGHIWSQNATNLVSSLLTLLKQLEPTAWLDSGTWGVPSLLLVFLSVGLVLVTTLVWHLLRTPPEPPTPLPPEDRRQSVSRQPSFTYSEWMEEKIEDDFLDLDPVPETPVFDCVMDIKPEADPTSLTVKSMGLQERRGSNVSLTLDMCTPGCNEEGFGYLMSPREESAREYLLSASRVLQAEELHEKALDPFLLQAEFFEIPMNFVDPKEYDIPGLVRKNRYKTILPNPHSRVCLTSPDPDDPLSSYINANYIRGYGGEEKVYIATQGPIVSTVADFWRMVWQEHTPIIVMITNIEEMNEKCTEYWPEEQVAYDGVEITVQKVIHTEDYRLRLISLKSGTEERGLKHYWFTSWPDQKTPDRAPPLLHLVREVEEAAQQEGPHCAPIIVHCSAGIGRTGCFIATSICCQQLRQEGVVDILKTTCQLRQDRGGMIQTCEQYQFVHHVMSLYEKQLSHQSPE

Melanocortin receptor 4 = Melanocortin receptor 4 (Homo sapiens, UniProt P32245); type: functional, cell-based;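 further: Cell-based assay with luminescence read-out, confirmatory dose-response testing for agonist activity of biased ligands at MC4R; human U2OS cells with tagged receptor and beta-arrestin; potency of agonists that increase receptor coupling to beta-arrestin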
[8] = biological target: Glucose-6-phosphate 1-dehydrogenase (Homo sapiens, UniProt P11413); test: human G6PD enzyme inhibitors, dose response, selectivity assay for P. falciparum G6PD inhibitor project, biochemical, fluorescence (AID 504792); type: functional
[9] = biological target: T8, Low molecular weight phosphotyrosine protein phosphatase (Homo sapiens, UniProt P24666); type: functional; conditions: read-out: IC50_Mean;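 further: Dose-response confirmation assay measuring inhibition of LMPTP enzyme activity by fluorescence intensity read-out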
T8 sequence (P24666 whole entry): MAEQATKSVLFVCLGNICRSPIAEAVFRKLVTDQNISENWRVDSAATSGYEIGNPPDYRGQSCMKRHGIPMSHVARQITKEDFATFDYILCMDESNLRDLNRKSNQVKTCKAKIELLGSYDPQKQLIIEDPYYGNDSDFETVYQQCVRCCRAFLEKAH

[10] = biological target: T9, Sentrin-specific protease 1 (Homo sapiens, UniProt Q9P0U3); test: Dose response confirmation of small molecule inhibitors of the catalytic domain of the SUMO protease, SENP1 in a FRET assay.; type: functional; conditions: read-out: IC50_Mean
T9 sequence (Q9P0U3 whole entry): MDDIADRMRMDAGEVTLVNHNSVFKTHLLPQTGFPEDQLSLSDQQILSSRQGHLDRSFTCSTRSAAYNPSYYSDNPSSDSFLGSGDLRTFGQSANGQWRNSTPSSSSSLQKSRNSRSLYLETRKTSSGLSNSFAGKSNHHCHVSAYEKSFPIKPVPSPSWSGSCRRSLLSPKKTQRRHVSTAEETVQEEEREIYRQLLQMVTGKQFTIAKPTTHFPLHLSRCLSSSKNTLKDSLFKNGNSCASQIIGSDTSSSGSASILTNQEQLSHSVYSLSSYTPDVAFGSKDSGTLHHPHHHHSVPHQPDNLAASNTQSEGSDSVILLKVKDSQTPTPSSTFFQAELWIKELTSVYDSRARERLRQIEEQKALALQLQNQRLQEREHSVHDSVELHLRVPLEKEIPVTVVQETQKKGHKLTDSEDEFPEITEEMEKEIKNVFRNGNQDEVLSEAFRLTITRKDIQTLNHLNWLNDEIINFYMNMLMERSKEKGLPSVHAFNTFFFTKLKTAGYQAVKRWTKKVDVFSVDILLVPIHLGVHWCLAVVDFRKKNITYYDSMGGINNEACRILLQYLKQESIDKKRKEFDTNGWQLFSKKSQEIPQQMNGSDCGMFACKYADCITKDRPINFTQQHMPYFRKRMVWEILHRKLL

P388/ADR = test: cells; type: functional; conditions: Mus musculus

Melanocortin receptor 4, sequence (P32245 whole entry): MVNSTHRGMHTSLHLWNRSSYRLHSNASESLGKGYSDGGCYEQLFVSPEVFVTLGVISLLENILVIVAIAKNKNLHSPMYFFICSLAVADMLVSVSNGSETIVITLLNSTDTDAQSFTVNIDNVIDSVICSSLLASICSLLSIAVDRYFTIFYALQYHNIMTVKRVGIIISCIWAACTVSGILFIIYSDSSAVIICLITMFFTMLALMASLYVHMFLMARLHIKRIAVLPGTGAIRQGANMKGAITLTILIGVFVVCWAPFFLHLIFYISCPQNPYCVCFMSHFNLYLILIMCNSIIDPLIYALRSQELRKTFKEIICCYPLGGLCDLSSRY
Dual specificity protein phosphatase 3, sequence (P51452 whole entry): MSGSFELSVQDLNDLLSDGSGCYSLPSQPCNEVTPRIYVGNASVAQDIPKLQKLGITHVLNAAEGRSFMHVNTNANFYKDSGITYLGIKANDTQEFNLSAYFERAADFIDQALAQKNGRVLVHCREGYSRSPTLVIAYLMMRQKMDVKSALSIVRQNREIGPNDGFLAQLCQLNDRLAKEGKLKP
Glucose-6-phosphate 1-dehydrogenase, sequence (P11413 whole entry): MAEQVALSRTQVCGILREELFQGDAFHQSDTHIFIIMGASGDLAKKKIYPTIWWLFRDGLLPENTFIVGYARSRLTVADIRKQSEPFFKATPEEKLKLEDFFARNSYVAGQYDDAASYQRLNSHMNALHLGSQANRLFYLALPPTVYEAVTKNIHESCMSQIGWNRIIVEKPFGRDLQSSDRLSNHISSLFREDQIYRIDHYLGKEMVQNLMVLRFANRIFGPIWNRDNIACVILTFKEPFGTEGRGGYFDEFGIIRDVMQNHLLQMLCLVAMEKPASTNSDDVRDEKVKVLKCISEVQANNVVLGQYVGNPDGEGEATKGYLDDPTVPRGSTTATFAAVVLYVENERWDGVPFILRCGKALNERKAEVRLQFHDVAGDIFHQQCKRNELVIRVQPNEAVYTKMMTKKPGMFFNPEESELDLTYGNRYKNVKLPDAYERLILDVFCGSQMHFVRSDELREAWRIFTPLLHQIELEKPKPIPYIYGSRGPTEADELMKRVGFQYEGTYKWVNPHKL
Phospholipase A2, sequence (P04054 whole entry, the tested form may be a part): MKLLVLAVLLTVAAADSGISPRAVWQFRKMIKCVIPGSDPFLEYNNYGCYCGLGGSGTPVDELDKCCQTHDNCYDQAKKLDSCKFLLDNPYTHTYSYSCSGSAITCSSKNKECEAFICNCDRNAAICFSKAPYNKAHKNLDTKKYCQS

Cc1ccccc1NC1=NC(=O)/C(=C/c2cccn2-c2cccc(C(=O)O)c2)S1
IC50 [1]: 1.09 µM (not active)
IC50 (Phospholipase A2): 8.6 µM (active)
EC50 [2]: > 300 µM (not active)
IC50 (Cysteine protease ATG4B): 10.2 µM (active)
EC50 [3]: 70 µM (active)
AC50 [4]: > 20 µM (inactive)

O=C(NCCCn1ccnc1)C(Cc1ccccc1)N1C(=O)c2ccccc2C1=O (centres undefined)
IC50 [5]: 3.08 µM (active)
IC50 [6]: 11.8 µM (active)
IC50 [7]: 36.1 µM (inactive)

Cc1ccc(C(=O)NCCNc2nc3cc(C)c(C)cc3cc2C)cc1
EC50 (Melanocortin receptor 4): > 89.2 µM (inactive)

O=C(CCN1C(=O)/C(=C/C=C/c2ccccc2)SC1=S)Nc1ccccn1
EC50 (Melanocortin receptor 4): > 89.2 µM (inactive)

COc1ccc2c(c1)CCc1c(C(=O)Nc3ccn(Cc4ccc(C)cc4)n3)noc1-2
EC50 (Melanocortin receptor 4): > 89.2 µM (inactive)

Cn1c(=O)[nH]c(=O)c2c1nc(SCCN1CCCCC1)n2CCCc1ccccc1
IC50 [5]: 0.57 µM (active)
IC50 [6]: 0.599 µM (active)
IC50 [7]: 34.9 µM (inactive)
IC50 [8]: > 80 µM (inactive)

CSc1sc(-c2nnc(S)n2C)c2c1C=CCC2
IC50 [9]: 38.2 µM (inactive)

COCCNC(=O)c1cccc2c1C(=O)c1ccc(N3CCOCC3)cc1S2(=O)=O
IC50 [10]: 14.1 µM (active)

COc1cccc2c1C(=O)c1c(O)c3c(c(O)c1C2=O)C[C@@](O)(C(C)=O)C[C@@H]3OC1CC(O)C(O)C(C)O1 (some centres undefined)
GI50 (P388/ADR): 0.293 µM (active)
